Key:
[1] = test system: rat uterine decidualization; assay: Rat decidualization assay; assay type: in vivo; conditions: ovariectomized female Sprague-Dawley rats, s.c.; average of dose-response curves
Description: The animals are treated once daily for seven days.
Uteri are removed and trimmed of fat.
Decidual response: [(D−C)/C]×100%

In the case of `C#C[C@]1(O)CC[C@H]2[C@@H]3CCC4=CC(=O)CC[C@@H]4[C@H]3C(=C)C[C@@]21CC` [3-Ketodesogestrel], the “average EC50 for uterine weight (decidual response)” value [1] is reported as 0.10 mg/kg.
With `CC1(C)CC(=O)Nc2ccc(-c3cccc(C#N)c3)cc21` [Example 42, 3-(4,4-Dimethyl-2-oxo-1,2,3,4-tetrahydroquinolin-6-yl)benzonitrile] the melting point was 190 to 192 °C.
For `C#C[C@]1(O)CC[C@H]2[C@@H]3CCC4=CC(=O)CC[C@@H]4[C@H]3CC[C@@]21CC` [Levonorgestrel], the “average EC50 for uterine weight (decidual response)” value [1] was 0.10 mg/kg.

Reference: patent publication US6693103B2 (Wyeth, priority 1999, dated 2004)
